Experimental data published in US20180000089A1, “NOVEL MICROBIOCIDES” (Syngenta Participations AG, priority 2015, published 2018).

Key:
[1] = test system: Mycosphaerella graminicola (Septoria tritici); assay: Mycosphaerella graminicola (Septoria tritici) / liquid culture (Septoria blotch); type: cell-based; conditions: Zymoseptoria tritici, PDB, 24° C., inhibition of growth determined photometrically 4-5 days after application, read-out: disease control
Procedure: (§1) 12 Mycosphaerella graminicola (Septoria tritici)/Liquid Culture (Septoria Blotch): Conidia of the fungus from cryogenic storage were directly mixed into nutrient broth (PDB potato dextrose broth). After placing a DMSO solution of test compound into a 96-well microtiter plate at an application rate of 200 ppm, the nutrient broth containing the fungal spores was added. The test plates were incubated at 24° C. and the inhibition of growth was determined photometrically 4-5 days after application.

Plasmopara viticola = assay: whole plant or invertebrate; type: in vivo; conditions: foliar, read-out: disease control
Fusarium culmorum = assay: microbe, parasite or virus in culture; type: cell-based; conditions: read-out: disease control
Pythium ultimum = Pythium ultimum / liquid culture (seedling damping off); type: cell-based; conditions: Globisporangium ultimum, potato dextrose broth, 24° C., inhibition of growth determined photometrically 2-3 days after application, read-out: disease control
Procedure: 8 Pythium ultimum/Liquid Culture (Seedling Damping Off) Mycelia fragments and oospores of a newly grown liquid culture of the fungus were directly mixed into nutrient broth (potato dextrose broth). After placing a DMSO solution of test compound into a 96-well format microtiter plate at an application rate of 200 ppm, the nutrient broth containing the fungal mycelia/spore mixture was added. The test plates were incubated at 24° C. and the inhibition of growth was determined photometrically 2-3 days after application.

[2] = test system: Glomerella lagenarium (Colletotrichum Lagenarium); assay: Glomerella lagenarium (Colletotrichum lagenarium) / liquid culture (anthracnose); type: cell-based; conditions: Colletotrichum orbiculare, PDB, 24° C., inhibition of growth measured photometrically 3-4 days after application, read-out: disease control
Procedure: as §1, with “10 Glomerella lagenarium (Colletotrichum Lagenarium)/Liquid” for “12 Mycosphaerella graminicola (Septoria tritici)/Liquid”, “(Anthracnose):” for “(Septoria Blotch):”, “measured” for “determined”, “3-4” for “4-5”

[3] = test system: Monographella nivalis (Microdochium nivale); assay: Monographella nivalis (Microdochium nivale) / liquid culture (foot rot cereals); type: cell-based; conditions: PDB, 24° C., inhibition of growth determined photometrically 4-5 days after application, read-out: disease control
Procedure: as §1, with “14 Monographella nivalis (Microdochium nivale)/liquid culture (foot rot cereals):” for “12 Mycosphaerella graminicola (Septoria tritici)/Liquid Culture (Septoria Blotch):”

Sclerotinia sclerotiorum = Sclerotinia sclerotiorum / liquid culture (cottony rot); type: cell-based; conditions: PDB, 24° C., inhibition of growth determined visually 3-4 days after application, read-out: disease control
Procedure: 17 Sclerotinia sclerotiorum/liquid culture (cottony rot): Mycelia fragments of a newly grown liquid culture of the fungus were directly mixed into nutrient broth (PDB potato dextrose broth). After placing a (DMSO) solution of the test compounds into a microtiter plate (96-well format) the nutrient broth containing the fungal material was added. The test plates were incubated at 24° C. and the inhibition of growth was determined visually 3-4 days after application.

[4] = test system: Mycosphaerella arachidis (Cercospora arachidicola); assay: Mycosphaerella arachidis (Cercospora arachidicola) / liquid culture (early leaf spot); type: cell-based; conditions: PDB, 24° C., inhibition of growth determined photometrically 4-5 days after application, read-out: disease control
Procedure: as §1, with “11” for “12”, “arachidis (Cercospora arachidicola)/Liquid” for “graminicola (Septoria tritici)/Liquid”, “(Early Leaf Spot):” for “(Septoria Blotch):”

Gaeumannomyces Graminis = assay: Gaeumannomyces graminis / liquid culture (take-all of cereals); type: cell-based; conditions: PDB, 24° C., inhibition of growth determined photometrically 4-5 days after application, read-out: disease control
Procedure: 13 Gaeumannomyces Graminis/Liquid Culture (Take-all of Cereals): Mycelial fragments of the fungus from cryogenic storage were directly mixed into nutrient broth (PDB potato dextrose broth). […] The test plates were incubated at 24° C. and the inhibition of growth was determined photometrically 4-5 days after application.

[5] = test system: Magnaporthe grisea (Pyricularia oryzae); type: in vivo; conditions: 200 ppm; rice leaf segments cv. Ballila, inoculated 2 days after application; assessed 5-7 days after application vs untreated
[6] = test system: Botryotinia fuckeliana (Botrytis cinerea); assay: Botryotinia fuckeliana (Botrytis cinerea) / liquid culture (gray mould); type: cell-based; conditions: Vogels broth, 24° C., inhibition of growth determined photometrically 3-4 days after application, read-out: disease control
Procedure: as §1, with “9 Botryotinia fuckeliana (Botrytis cinerea)/liquid culture (Gray mould):” for “12 Mycosphaerella graminicola (Septoria tritici)/Liquid Culture (Septoria Blotch):”, “(Vogels” for “(PDB potato dextrose”, “3-4” for “4-5”

OB1OCc2cc(F)c(-c3ccccc3)cc21 [Compound 9]
inhibition of growth at 200 ppm [1]: ≥ 80% | pest or weed control at 200 ppm (Plasmopara viticola): ≥ 80% | inhibition of growth at 200 ppm (Fusarium culmorum): ≥ 80% | melting point: 142 to 152 °C | inhibition of growth at 200 ppm (Pythium ultimum): ≥ 80% | inhibition of growth at 200 ppm [2]: ≥ 80% | inhibition of growth at 200 ppm [3]: ≥ 80% | inhibition of growth at 200 ppm (Sclerotinia sclerotiorum): ≥ 80% | inhibition of growth at 200 ppm [4]: ≥ 80% | inhibition of growth at 200 ppm (Gaeumannomyces Graminis): ≥ 80% | disease control [5]: at least 80% | inhibition of growth at 200 ppm [6]: ≥ 80%
